Type in all cases: functional
The test system of test [1] is Colletotrichum musae. The test is described as follows: Growth inhibition of Colletotrichum musae assessed as inhibition of mycelial growth up to 160 g/l incubated for 15 min followed by compound washout measured after 7 days in absence of surfactant APSA 80.
In test [2] the test system is Fusarium verticillioides. Nature of the test: Growth inhibition of Fusarium verticillioides assessed as inhibition of mycelial growth up to 160 g/l incubated for 15 min followed by compound washout measured after 7 days in absence of surfactant APSA 80.
Test [3] concerns Fusarium verticillioides. The test is described as follows: Antifungal activity against Fusarium verticillioides infected Cavendish banana fruit assessed as reduction in crown rot incubated for 15 min followed by compound washout measured after 1 week in absence of surfactant APSA 80 relative to control. More on the design: scale not given: the % may be the effect or the level left.

For test [4], the system named is Lasiodiplodia theobromae. The test is described as follows: Growth inhibition of Lasiodiplodia theobromae assessed as concentration required for inhibition of mycelial growth incubated for 15 min followed by compound washout measured after 7 days in presence of surfactant APSA 80.
Test [5] deals with Colletotrichum musae. Nature of the test: Antifungal activity against Colletotrichum musae assessed as reduction in colony diameter at 10 to 160 g/l incubated for 15 min followed by compound washout measured after 7 days in absence of surfactant APSA 80 relative to control. More on the design: scale not given: the % may be the effect or the level left.
Test [6] deals with Fusarium verticillioides. The test is described as follows: Antifungal activity against Fusarium verticillioides infected Cavendish banana fruit assessed as reduction in crown rot incubated for 15 min followed by compound washout measured after 1 week in presence of surfactant APSA 80 relative to control. Also on record: scale not given: the % may be the effect or the level left.

In test [7] the test system is Colletotrichum musae. The test is described as follows: Antifungal activity against Colletotrichum musae infected Cavendish banana fruit assessed as reduction in crown rot incubated for 15 min followed by compound washout measured after 2 weeks in presence of surfactant APSA 80 relative to control. More on the design: scale not given: the % may be the effect or the level left.

For test [8], the system named is Thielaviopsis paradoxa. The test is described as follows: Antifungal activity against Ceratocystis paradoxa assessed as reduction in colony diameter at 10 to 160 g/l incubated for 15 min followed by compound washout measured after 7 days in presence of surfactant APSA 80 relative to control. More on the design: scale not given: the % may be the effect or the level left.

Test [9] concerns Lasiodiplodia theobromae. Nature of the test: Antifungal activity against Lasiodiplodia theobromae infected Cavendish banana fruit assessed as reduction in crown rot incubated for 15 min followed by compound washout measured after 1 week in presence of surfactant APSA 80 relative to control. More on the design: scale not given: the % may be the effect or the level left.
Test [10] deals with Fusarium verticillioides. The test is described as follows: Antifungal activity against Fusarium verticillioides infected Cavendish banana fruit assessed as reduction in crown rot incubated for 15 min followed by compound washout measured after 3 weeks in absence of surfactant APSA 80 relative to control. Particulars: pooled result: one value given for 4 cell lines, strains, targets or settings. More on the design: scale not given: the % may be the effect or the level left.

Test [11] concerns Colletotrichum musae. Nature of the test: Antifungal activity against Colletotrichum musae infected Cavendish banana fruit assessed as reduction in crown rot incubated for 15 min followed by compound washout measured after 2 weeks in absence of surfactant APSA 80 relative to control. Also on record: scale not given: the % may be the effect or the level left.
For test [12], the system named is Thielaviopsis paradoxa. The test is described as follows: Antifungal activity against Ceratocystis paradoxa infected Cavendish banana fruit assessed as reduction in crown rot incubated for 15 min followed by compound washout measured after 1 week in absence of surfactant APSA 80 relative to control. More on the design: scale not given: the % may be the effect or the level left.

Test [13] has as its system Lasiodiplodia theobromae. Nature of the test: Antifungal activity against Lasiodiplodia theobromae infected Cavendish banana fruit assessed as reduction in crown rot incubated for 15 min followed by compound washout measured after 2 weeks in presence of surfactant APSA 80 relative to control. Also on record: scale not given: the % may be the effect or the level left.

Test [14] deals with Lasiodiplodia theobromae. The test is described as follows: Growth inhibition of Lasiodiplodia theobromae assessed as concentration required for inhibition of mycelial growth incubated for 15 min followed by compound washout measured after 7 days in absence of surfactant APSA 80.
For test [15], the system named is Colletotrichum musae. The test is described as follows: Antifungal activity against Colletotrichum musae infected Cavendish banana fruit assessed as reduction in crown rot incubated for 15 min followed by compound washout measured after 1 week in presence of surfactant APSA 80 relative to control. Also on record: scale not given: the % may be the effect or the level left.

Test [16] concerns Thielaviopsis paradoxa. Nature of the test: Antifungal activity against Ceratocystis paradoxa infected Cavendish banana fruit assessed as reduction in crown rot incubated for 15 min followed by compound washout measured after 2 weeks in presence of surfactant APSA 80 relative to control. More on the design: scale not given: the % may be the effect or the level left.
Test [17] deals with Colletotrichum musae. The test is described as follows: Antifungal activity against Colletotrichum musae infected Cavendish banana fruit assessed as reduction in crown rot incubated for 15 min followed by compound washout measured after 1 week in absence of surfactant APSA 80 relative to control. More on the design: scale not given: the % may be the effect or the level left.

In test [18] the test system is Fusarium verticillioides. The test is described as follows: Antifungal activity against Fusarium verticillioides assessed as reduction in colony diameter at 10 to 160 g/l incubated for 15 min followed by compound washout measured after 7 days in presence of surfactant APSA 80 relative to control. Also on record: scale not given: the % may be the effect or the level left.

Test [19] deals with Thielaviopsis paradoxa. Nature of the test: Antifungal activity against Ceratocystis paradoxa infected Cavendish banana fruit assessed as reduction in crown rot incubated for 15 min followed by compound washout measured after 2 weeks in absence of surfactant APSA 80 relative to control. Also on record: scale not given: the % may be the effect or the level left.
The subject of test [20] is Lasiodiplodia theobromae. Nature of the test: Antifungal activity against Lasiodiplodia theobromae infected Cavendish banana fruit assessed as reduction in crown rot incubated for 15 min followed by compound washout measured after 2 weeks in absence of surfactant APSA 80 relative to control. Also on record: scale not given: the % may be the effect or the level left.
Test [21] has as its system Thielaviopsis paradoxa. The test is described as follows: Antifungal activity against Ceratocystis paradoxa infected Cavendish banana fruit assessed as reduction in crown rot incubated for 15 min followed by compound washout measured after 1 week in presence of surfactant APSA 80 relative to control. Also on record: scale not given: the % may be the effect or the level left.

The test system of test [22] is Fusarium verticillioides. Nature of the test: Antifungal activity against Fusarium verticillioides assessed as reduction in colony diameter at 10 to 160 g/l incubated for 15 min followed by compound washout measured after 7 days in absence of surfactant APSA 80 relative to control. Also on record: scale not given: the % may be the effect or the level left.
Test [23] has as its system Lasiodiplodia theobromae. Nature of the test: Antifungal activity against Lasiodiplodia theobromae assessed as reduction in colony diameter at 10 to 160 g/l incubated for 15 min followed by compound washout measured after 7 days in presence of surfactant APSA 80 relative to control. Also on record: scale not given: the % may be the effect or the level left.
Test [24] relates to Thielaviopsis paradoxa. Nature of the test: Antifungal activity against Ceratocystis paradoxa assessed as reduction in colony diameter at 10 to 160 g/l incubated for 15 min followed by compound washout measured after 7 days in absence of surfactant APSA 80 relative to control. More on the design: scale not given: the % may be the effect or the level left.
In test [25] the test system is Fusarium verticillioides. Nature of the test: Antifungal activity against Fusarium verticillioides infected Cavendish banana fruit assessed as reduction in crown rot incubated for 15 min followed by compound washout measured after 2 weeks in absence of surfactant APSA 80 relative to control. Also on record: scale not given: the % may be the effect or the level left.

Test [26] relates to Lasiodiplodia theobromae. The test is described as follows: Antifungal activity against Lasiodiplodia theobromae assessed as reduction in colony diameter at 10 to 160 g/l incubated for 15 min followed by compound washout measured after 7 days in absence of surfactant APSA 80 relative to control. Also on record: scale not given: the % may be the effect or the level left.
The subject of test [27] is Lasiodiplodia theobromae. Nature of the test: Antifungal activity against Lasiodiplodia theobromae infected Cavendish banana fruit assessed as reduction in crown rot incubated for 15 min followed by compound washout measured after 1 week in absence of surfactant APSA 80 relative to control. Also on record: scale not given: the % may be the effect or the level left.
Test [28] relates to Fusarium verticillioides. The test is described as follows: Antifungal activity against Fusarium verticillioides infected Cavendish banana fruit assessed as reduction in crown rot incubated for 15 min followed by compound washout measured after 2 weeks in presence of surfactant APSA 80 relative to control. More on the design: scale not given: the % may be the effect or the level left.

Test [29] concerns Colletotrichum musae. The test is described as follows: Antifungal activity against Colletotrichum musae assessed as reduction in colony diameter at 10 to 160 g/l incubated for 15 min followed by compound washout measured after 7 days in presence of surfactant APSA 80 relative to control. Also on record: scale not given: the % may be the effect or the level left.
Test [30] relates to Fusarium verticillioides. The test is described as follows: Antifungal activity against Fusarium verticillioides infected Cavendish banana fruit assessed as reduction in crown rot incubated for 15 min followed by compound washout measured after 3 weeks in presence of surfactant APSA 80 relative to control. Also on record: scale not given: the % may be the effect or the level left. Particulars: pooled result: one value given for 4 cell lines, strains, targets or settings.

Calls of active or inactive are those of the source. No cut-off for these calls is given here.

In the case of `O=C([O-])[O-].[Na+].[Na+]`, the outcome in [1] and in [2] was inactive.

With `O=C([O-])O.[Na+]` [SODIUM BICARBONATE], the Activity in test [3] amounted to 0%; in test [4], 100 g/L; in [5], 18%; in test [6] it was 0%; in test [7], 0%; in test [8] it was 76%. Moreover, the Activity in test [9] stood at 0%; in test [10], 58%; in test [11] it was 25%; in test [12] it was 0%; in [13] it was 0%; in test [14], 150 g/L. Also, the Activity in test [15] came to 0%; in [16], 0%; in test [17], 0%; in test [18], 50%; in test [19], 25%; in test [20], 25%. The Activity in test [21] is 0%; in [22], 0%; in [23] it was 72%; in test [24], 36%; in [25], 25%; in [26], 46%. The Activity in test [27] is reported as 0%; in test [28], 0%; in test [29], 80%; in test [30], 12%.

The values above are taken from ChEMBL document CHEMBL3044541, “Control of crown rot-causing fungal pathogens of banana by inorganic salts and a surfactant” (Crop Prot, 2007).
